Source: PubChem BioAssay (NCI)
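Each compound was tested at five concentrations against cells in 96-well plates for 48 hours. GI50 = concentration required for 50% inhibition of growth. The concentration for full growth arrest is given as TGI.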

Experiments:
Assay in all cases: growth of human tumour cells (NCI), 48 h
[1] = tested on: MOLT-4 leukemia
[2] = tested on: SNB-19 CNS
[3] = tested on: HL-60(TB) leukemia
[4] = tested on: NCI-H226 lung
[5] = tested on: EKVX NSCLC
[6] = tested on: SF-295 CNS
[7] = tested on: SNB-75 CNS
[8] = tested on: UO-31 renal
[9] = tested on: MDA-MB-231 breast
[10] = tested on: CAKI-1 renal
[11] = tested on: A549 NSCLC
[12] = tested on: LOX IMVI melanoma
[13] = tested on: HS 578T breast
[14] = tested on: HOP-62 NSCLC
[15] = tested on: UACC-62 melanoma
[16] = tested on: SK-MEL-5 melanoma
[17] = tested on: HCT-15 colon
[18] = tested on: NCI-H522 lung
[19] = tested on: M14 melanoma
[20] = tested on: HCC-2998 colon
[21] = tested on: TK-10 renal
[22] = tested on: UACC-257 melanoma
[23] = tested on: NCI/ADR-RES ovarian
[24] = tested on: T-47D breast
[25] = tested on: SK-OV-3 ovarian
[26] = tested on: PC-3 prostate
[27] = tested on: KM12 colon
[28] = tested on: HOP-92 NSCLC
[29] = tested on: COLO 205 colon

Structure (SMILES): Cn1ncc2ncc(-c3ccc4ncc(C#N)c(N5CCc6cc(F)c(Cl)cc65)c4c3)cc21
- GI50 [1]: 3.01 µM
- TGI [1]: > 100 µM
- GI50 [2]: 6.72 µM
- TGI [2]: > 100 µM
- GI50 [3]: 7.84 µM
- TGI [3]: > 100 µM
- GI50 [4]: 1.86 µM
- TGI [4]: 20.9 µM
- GI50 [5]: 2.35 µM
- TGI [5]: 14.6 µM
- GI50 [6]: 2.57 µM
- TGI [6]: > 100 µM
- GI50 [7]: 0.769 µM
- TGI [7]: 5.47 µM
- GI50 [8]: 0.251 µM
- TGI [8]: 10.5 µM
- GI50 [9]: 2.6 µM
- TGI [9]: 28.1 µM
- GI50 [10]: 2.31 µM
- TGI [10]: 79 µM
- GI50 [11]: 4.05 µM
- TGI [11]: > 100 µM
- GI50 [12]: 2.26 µM
- TGI [12]: 38.4 µM
- GI50 [13]: 1.44 µM
- TGI [13]: 5.41 µM
- GI50 [14]: 2.74 µM
- TGI [14]: > 100 µM
- GI50 [15]: 1.65 µM
- TGI [15]: 11.7 µM
- GI50 [16]: 6.97 µM
- TGI [16]: 21.9 µM
- GI50 [17]: 3.49 µM
- TGI [17]: > 100 µM
- GI50 [18]: 3.28 µM
- TGI [18]: > 100 µM
- GI50 [19]: 6.02 µM
- TGI [19]: > 100 µM
- GI50 [20]: 3.26 µM
- TGI [20]: > 100 µM
- GI50 [21]: 9.02 µM
- TGI [21]: > 100 µM
- GI50 [22]: 9.46 µM
- TGI [22]: > 100 µM
- GI50 [23]: 3.27 µM
- TGI [23]: > 100 µM
- GI50 [24]: 2.03 µM
- TGI [24]: 31.1 µM
- GI50 [25]: 2.71 µM
- TGI [25]: > 100 µM
- GI50 [26]: 2.27 µM
- TGI [26]: > 100 µM
- GI50 [27]: 5.35 µM
- TGI [27]: > 100 µM
- GI50 [28]: 2.27 µM
- TGI [28]: 8.75 µM
- GI50 [29]: 5.8 µM
